Converted amounts (≈) assume the structure as drawn. Where two headings read alike, the source gives them in different places. Square brackets hold non-standard residues; d marks the D form. Peptide text beside a SMILES is read from it.
Columns and labels:
gram-positive bacteria = system: gram-positive bacteria
Method in brief: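 Microtiter dilution in LB no-salt or Mueller-Hinton medium, with BHI for Pseudomonas aeruginosa clinical isolates (final inoculum 1×10^6 CFU/ml). Plates were incubated 24 hours at 37° C. MIC was the lowest peptide concentration inhibiting growth.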

human erythrocytes = test: Hemolytic activity (MHC), Protocol B, 18 hours; settings: for MHC (μg/ml) hRBC: maximal peptide concentration with no hemolysis after 18 hours
Method in brief: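 Hemolysis of 1% human erythrocytes in phosphate-buffered saline by 2-fold diluted D-peptides, incubated 18 h at 37 °C; hemoglobin release read spectrophotometrically. Value is the maximal peptide concentration producing no hemolysis, relative to erythrocytes without peptide.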

[1] = RP-HPLC temperature profiling (hydrophobicity and self-association/dimerization parameter PA); format: physicochemical; settings: for tR (min) 5° C.: RP-HPLC retention time at 5° C. during temperature profiling (measure of hydrophobicity); for tR (min) 80° C.: RP-HPLC retention time at 80° C. during temperature profiling; for Hydrophobicity tR5: RP-HPLC retention time at pH 2, 5° C.; for Hydrophobicity tR80: RP-HPLC retention time at pH 2, 80° C.; for tR (min) Max: maximal RP-HPLC retention time during temperature profiling 5-80° C.; for PA (min) association parameter: maximal retention time difference relative to control peptide C within 5-80° C.; for PA (dimerization / self-association parameter): maximal retention time difference relative to control peptide C, 5-80° C.; for ΔtR (X-NVL) (min) 5° C.: retention time difference relative to native peptide V681 (NVL) at 5° C.; for ΔtR (X-NVL) (min) 5° C. / ΔtR (X-NVL) (min) 80° C. / ΔtR (X-PSL) (min) 5° C. / ΔtR (X-PSL) (min) 80° C.: relative hydrophobicity; for ΔtR (X-NVL) (min) 80° C.: retention time difference relative to native peptide V681 (NVL) at 80° C.; for ΔtR (X-PSL) (min) 5° C.: retention time difference relative to native peptide V681 (PSL) at 5° C.; for ΔtR (X-PSL) (min) 80° C.: retention time difference relative to native peptide V681 (PSL) at 80° C.
Method in brief: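 RP-HPLC retention times recorded over temperature profiling from 5°C to 80°C, with retention relative to native V681 at each limit used as hydrophobicity. Self-association parameter PA defined as the maximal change in retention time from 5°C, after subtracting that of monomeric random-coil control peptide C.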

[2] = maximal peptide concentration producing no hemolysis after 18 hours, 37° C.

| SMILES | MIC (μg/ml) GM (gram-positive bacteria) | MIC (μg/ml) Gram-positive (gram-positive bacteria) | Hemolytic activity MHC (human erythrocytes; [2]) | MHC (μg/ml) hRBC (human erythrocytes; Table 11) | MHC (μg/ml) hRBC (human erythrocytes; Table 12) | MIC (μg/ml) B. subtilis C971 wt (Bacillus subtilis) | tR (min) 5° C. [1] | tR (min) 80° C. [1] | Hydrophobicity tR5 [1] | Hydrophobicity tR80 [1] | tR (min) Max [1] | PA (min) association parameter [1] | PA (dimerization / self-association parameter) [1] | ΔtR (X-NVL) (min) 5° C. ([1]; non-polar face substitutions) | ΔtR (X-NVL) (min) 80° C. ([1]; non-polar face substitutions) | ΔtR (X-PSL) (min) 5° C. ([1]; polar face substitutions) | ΔtR (X-PSL) (min) 80° C. ([1]; polar face substitutions) | other results |
| --- | --- | --- | --- | --- | --- | --- | --- | --- | --- | --- | --- | --- | --- | --- | --- | --- | --- | --- |
| CC[C@H](C)[C@H](NC(=O)[C@H](C)NC(=O)[C@H](CCCCN)NC(=O)[C@H](CC(C)C)NC(=O)[C@H](C)NC(=O)[C@@H](NC(=O)[C@H](Cc1c[nH]cn1)NC(=O)[C@H](CC(C)C)NC(=O)[C@@H](NC(=O)[C@@H](NC(=O)[C@H](CCCCN)NC(=O)[C@@H](NC(=O)[C@H](C)NC(=O)[C@H](CO)NC(=O)[C@H](CCCCN)NC(=O)[C@H](Cc1ccccc1)NC(=O)[C@@H](NC(=O)[C@H](CCCCN)NC(=O)[C@H](CC(C)C)NC(=O)[C@H](Cc1ccccc1)NC(=O)[C@H](CO)NC(=O)[C@H](CCCCN)NC(=O)[C@H](Cc1c[nH]c2ccccc12)NC(=O)[C@H](CCCCN)NC(C)=O)[C@@H](C)O)C(C)C)[C@@H](C)O)C(C)C)[C@@H](C)O)C(=O)N[C@@H](CO)C(=O)N[C@@H](CO)C(N)=O [Peptide V681, reference compound] | 4.4 µg/mL (≈ 1.49 µM) | 6.3 µg/mL (≈ 2.13 µM) | 7.8 µg/mL | 7.8 µg/mL | 7.8 µg/mL | 3.1 µg/mL (≈ 1.05 µM) | 48.10 min | 45.83 min | 96.6 min | 88.8 min | 49.99 min | 3.63 min | 7.2 | 0 min | 0 min | 0 min | 0 min | geometric mean MIC against gram-positive bacteria (gram-positive bacteria): 6.3 µg/mL; overall hydrophobicity change relative to PVL ([1]; RP-HPLC retention time difference at 80° C., polar face substitutions): -0.35 min |
| CC[C@H](C)[C@H](NC(=O)[C@H](C)NC(=O)[C@H](CCCCN)NC(=O)[C@H](CC(C)C)NC(=O)[C@H](C)NC(=O)[C@@H](NC(=O)[C@H](Cc1c[nH]cn1)NC(=O)[C@H](CC(C)C)NC(=O)[C@@H](NC(=O)[C@@H](NC(=O)[C@H](CCCCN)NC(=O)[C@@H](C)NC(=O)[C@H](C)NC(=O)[C@H](CO)NC(=O)[C@H](CCCCN)NC(=O)[C@H](Cc1ccccc1)NC(=O)[C@@H](NC(=O)[C@H](CCCCN)NC(=O)[C@H](CC(C)C)NC(=O)[C@H](Cc1ccccc1)NC(=O)[C@H](CO)NC(=O)[C@H](CCCCN)NC(=O)[C@H](Cc1c[nH]c2ccccc12)NC(=O)[C@H](CCCCN)NC(C)=O)[C@@H](C)O)[C@@H](C)O)C(C)C)[C@@H](C)O)C(=O)N[C@@H](CO)C(=O)N[C@@H](CO)C(N)=O [NAD] | 2.8 µg/mL (≈ 0.954 µM) |  | 31.3 µg/mL | 31.3 µg/mL | 31.3 µg/mL | 3.1 µg/mL (≈ 1.06 µM) | 40.49 min | 38.00 min | 81.2 min | 73.2 min | 41.01 min | 2.19 min | 4.1 | -7.61 min | -7.83 min |  |  | Hemolytic activity Fold (human erythrocytes): 4; Hemolytic activity MHC (human erythrocytes; red cells of human, 18 h): 31.3 µg/mL |
| CC[C@H](C)[C@H](NC(=O)[C@H](C)NC(=O)[C@H](CCCCN)NC(=O)[C@H](CC(C)C)NC(=O)[C@H](C)NC(=O)[C@@H](NC(=O)[C@H](Cc1cnc[nH]1)NC(=O)[C@H](CC(C)C)NC(=O)[C@@H](NC(=O)[C@@H](NC(=O)[C@H](CCCCN)NC(=O)[C@H](CCCCN)NC(=O)[C@H](C)NC(=O)[C@H](CO)NC(=O)[C@H](CCCCN)NC(=O)[C@H](Cc1ccccc1)NC(=O)[C@@H](NC(=O)[C@H](CCCCN)NC(=O)[C@H](CC(C)C)NC(=O)[C@H](Cc1ccccc1)NC(=O)[C@H](CO)NC(=O)[C@H](CCCCN)NC(=O)[C@H](Cc1c[nH]c2ccccc12)NC(=O)[C@H](CCCCN)NC(C)=O)[C@@H](C)O)[C@@H](C)O)C(C)C)[C@@H](C)O)C(=O)N[C@@H](CO)C(=O)N[C@@H](CO)C(N)=O [NKL] |  |  | 250.0 µg/mL | 250.0 µg/mL | 250.0 µg/mL | 3.1 µg/mL (≈ 1.04 µM) | 36.85 min | 33.22 min | 74.9 min | 64.7 min | 36.91 min | 1.10 min | 2.1 | -11.25 min | -12.61 min |  |  | MIC (μg/ml) GM (gram-positive bacteria; geometric mean of MIC values from all 6 gram-positive strains of Table 12): 7.9 µg/mL (≈ 2.64 µM); Hemolytic activity Fold (human erythrocytes; fold decrease in hemolytic activity compared to V681, 18 hours): 32; Hemolytic activity MHC (human erythrocytes; maximal peptide concentration showing no hemolysis after 18 hours, hRBC, Table 14): 250.0 µg/mL; decrease in hydrophobicity relative to NVL (V681) ([1]; RP-HPLC retention time difference at 80° C., non-polar face substitutions): -12.61 min |
| CC[C@H](C)[C@H](NC(=O)[C@H](C)NC(=O)[C@H](CCCCN)NC(=O)[C@H](CC(C)C)NC(=O)[C@H](C)NC(=O)[C@@H](NC(=O)[C@H](Cc1c[nH]cn1)NC(=O)[C@H](CC(C)C)NC(=O)[C@@H](NC(=O)[C@@H](NC(=O)[C@H](CCCCN)NC(=O)[C@@H](NC(=O)[C@H](C)NC(=O)[C@H](NC(=O)[C@H](CCCCN)NC(=O)[C@H](Cc1ccccc1)NC(=O)[C@@H](NC(=O)[C@H](CCCCN)NC(=O)[C@H](CC(C)C)NC(=O)[C@H](Cc1ccccc1)NC(=O)[C@H](CO)NC(=O)[C@H](CCCCN)NC(=O)[C@H](Cc1c[nH]c2ccccc12)NC(=O)[C@H](CCCCN)NC(C)=O)[C@@H](C)O)C(C)C)C(C)C)[C@@H](C)O)C(C)C)[C@@H](C)O)C(=O)N[C@@H](CO)C(=O)N[C@@H](CO)C(N)=O [PVD] (Ac-KWKSFLKTFK[dV]AVKTVLHTALKAISS-NH2) |  | 6.6 µg/mL (≈ 2.22 µM) |  |  |  |  | 42.96 min | 40.51 min |  |  | 43.83 min | 2.54 min |  |  |  | -5.14 min | -5.32 min |  |
| CC[C@H](C)[C@H](NC(=O)[C@H](C)NC(=O)[C@H](CCCCN)NC(=O)[C@H](CC(C)C)NC(=O)[C@H](C)NC(=O)[C@@H](NC(=O)[C@H](Cc1c[nH]cn1)NC(=O)[C@H](CC(C)C)NC(=O)[C@@H](NC(=O)[C@@H](NC(=O)[C@H](CCCCN)NC(=O)[C@@H](NC(=O)[C@H](C)NC(=O)[C@@H](CC(C)C)NC(=O)[C@H](CCCCN)NC(=O)[C@H](Cc1ccccc1)NC(=O)[C@@H](NC(=O)[C@H](CCCCN)NC(=O)[C@H](CC(C)C)NC(=O)[C@H](Cc1ccccc1)NC(=O)[C@H](CO)NC(=O)[C@H](CCCCN)NC(=O)[C@H](Cc1c[nH]c2ccccc12)NC(=O)[C@H](CCCCN)NC(C)=O)[C@@H](C)O)C(C)C)[C@@H](C)O)C(C)C)[C@@H](C)O)C(=O)N[C@@H](CO)C(=O)N[C@@H](CO)C(N)=O [PLD] (Ac-KWKSFLKTFK[dL]AVKTVLHTALKAISS-NH2) |  | 4.7 µg/mL (≈ 1.57 µM) |  |  |  |  | 44.73 min | 42.14 min |  |  | 45.85 min | 2.82 min |  |  |  | -3.37 min | -3.69 min |  |
